Measurements taken from patent publication US20090111759A1, “Synergistic Combination of Glutamate-and Gaba-Gated Chloride Agonist Pesticide and at Least One Vitamin E, Niacin, or Derivatives Thereof” (priority 2006, published 2009).
Like-named read-outs stand apart in the source and are kept apart here.

Tests used:
[1] = test system: Dysdercus cingulatus nymphs; format: in vivo; conditions: 2000 ng applied on each nymph; 24 h after applying
Method: A range of Abamectin solutions in acetone was prepared. Similarly, a range of tocopherol, all-rac alpha, solutions in acetone was prepared. Abamectin solution (2 μl), tocopherol solution (2 μl) or both were applied topically on nymphs of Dysdercus cingulatus. Abamectin was applied dorsally while tocopherol was applied ventrally. […] The mortality of the nymphs was recorded 24 h after applying the solutions.

[2] = test system: Dysdercus cingulatus nymphs; test: Topical application of Abamectin/tocopherol acetone solutions, LD50 (Example 5); format: in vivo; conditions: sum of Abamectin and tocopherol; mortality recorded 48 h after applying
Method: (§1) A range of Abamectin solutions in acetone was prepared. Similarly, a range of tocopherol, all-rac alpha, solutions was prepared. Mixed solutions of Abamectin and tocopherol in acetone were prepared as well. Nymphs of Dysdercus cingulatus were treated topically with either an Abamectin acetone solution (2 μl), a tocopherol acetone solution (2 μl) or mixed solutions (2 μl). The Dysdercus cingulatus mortality was recorded 48 h after applying the products.
Log dose-mortality curves were constructed for the Abamectin and the tocopherol treatments. LD50 values based on the sum of Abamectin and tocopherol contents (ng active ingredient(s) per nymph) were calculated.
From the observed LD50 values for Abamectin and tocopherol expected LD50 values for the mixtures were calculated according to Wadley's formula.

[3] = test system: Dysdercus cingulatus nymphs; format: in vivo
Method: as §1, with “Ivermectin” for “Abamectin”, “tocopherol” for “tocopherol, all-rac alpha,”, “μl).” for “μl). The Dysdercus cingulatus mortality was recorded 48 h after applying the products.”
The mortality was recorded after 24 and 48 h. The results were evaluated by the Colby-method.

Spodoptera exiqua larvae = test: Topical application of Emamectin-benzoate/tocopherol acetone solutions, LD50 (Example 9); format: in vivo; conditions: topical 1 μl acetone solution; mortality recorded 48 h after applying
Method: A range of Emamectin-benzoate and tocopherol, all-rac alpha, solutions with varying concentrations of each compound in acetone was prepared. Mixed solutions of Emamectin-benzoate and tocopherol, all-rac alpha, were also prepared. Larvae of Spodoptera exiqua were treated topically with either an Emamectin-benzoate acetone solution (1 μl), a tocopherol acetone solution (1 μl) or a solution containing both of the two compounds in the ratios 1:1 and 1:3 (1 μl). Log dose-mortality curves were constructed for the Emamectin-benzoate solutions, the tocopherol solutions and the mixtures. […] A comparison was made between the actual observed LD50 and the expected value, based on the Wadley method as described previously.

[4] = test system: Dysdercus cingulatus nymphs; format: in vivo; remark: listed apart in the source
Method: Abamectin, Ivermectin and tocopherol solutions in acetone were prepared. Mixed solutions of either Abamectin or Ivermectin and tocopherol were also prepared. Nymphs of Dysdercus cingulatus were treated topically with Abamectin acetone solution (20,000 ng/nymph), Ivermectin acetone solution (20,000 ng/nymph), a tocopherol acetone solution (20,000 ng/nymph) or a solution containing Abamectin and tocopherol or Ivermectin and tocopherol in the ratio 1:3 (20,000 ng total/nymph). The solutions were applied dorsally on the nymphs.
The Dysdercus cingulatus mortality was followed over time and recorded. Log time-mortality curves were constructed for the Abamectin and Ivermectin solutions and for the mixtures with tocopherol. An LT50 value was calculated for each application.

Tetranychus urticae = test: Spray test of Spinosad and tocopheryl acetate on bean plants (Vicia faba), leaf protection (Example 13); format: in vivo; conditions: single active, leaf protection 7 days after mites placed, average of four evaluations
From the text: Using the alternative method for determining synergism the effect of each mixture of Spinosad and tocopheryl acetate is compared with the effect of the same rate of each of the active ingredients used alone.

Haemonchus contortus = test: Larvae feeding inhibition study (Example 23); conditions: for LFI-50 H. con.: larvae feeding inhibition 50%; for LFI-50 H. con. / LFI-96 H. con. / LFI-99 H. con.: Ivermectin resistant isolate, mixtures: based on concentration of IVM or DOR; for LFI-96 H. con.: larvae feeding inhibition 96%; for LFI-99 H. con.: larvae feeding inhibition 99%
From the text: (§2) The calculations done according to Wadley and shown in Table 23 indicate that synergistic action of Ivermectin and tocopheryl acetate and Doramectin and tocopheryl acetate was pre-sent in the larvae feed inhibition study. The synergistic action of Ivermectin and tocepheryl acetate in the H. contortus experiment is of particular interest because the H. contortus iso-late used was Ivermectin resistant.

[5] = test system: Teladorsagia (Ostertagia) circumcincta; test: Larvae feeding inhibition study (Example 23); conditions: for LFI-50 T. cir.: larvae feeding inhibition 50%; for LFI-50 T. cir. / LFI-96 T. cir. / LFI-99 T. cir.: mixtures: based on concentration of IVM or DOR; for LFI-96 T. cir.: larvae feeding inhibition 96%; for LFI-99 T. cir.: larvae feeding inhibition 99%
From the text: as §2

[6] = test system: Trichostrongylus colubriformis; test: Larvae feeding inhibition study (Example 23); conditions: for LFI-50 T. col.: larvae feeding inhibition 50%; for LFI-50 T. col. / LFI-96 T. col. / LFI-99 T. col.: mixtures: based on concentration of IVM or DOR; for LFI-96 T. col.: larvae feeding inhibition 96%; for LFI-99 T. col.: larvae feeding inhibition 99%
From the text: as §2

[7] = test system: adult sea lice (Lepeophtheirus salmonis); conditions: tested alone at various concentrations
Method: Eur. 5th Ed was studied on adult sea lice (Lepeophtheirus salmonis), a fish parasite, in seawater in Petri dishes. Emamectin benzoate and tocopheryl aceate were tested at various concentrations. In addition, mixtures of Emamectin benzoate and tocopheryl aceate, ratio 1:10 based on weight, were tested as well.

[8] = test system: cat fleas (Ctenocephalides felis felis) larvae; test: In vitro contact test on flea larvae (Example 25)
[9] = test system: cat fleas (Ctenocephalides felis felis) adult; test: In vitro contact test on adult fleas (Example 25)
[10] = test system: cat fleas (Ctenocephalides felis felis) larvae; test: In vitro larvae test based on systemic activity (Example 25)
[11] = test system: Onchocerca lienalis microfilariae; test: Microfilariae mobility test (Example 26)
[12] = test system: larvae of Lucilia cuprina (sheep blowfly)
From the text: A mixture of Spinosad and tocopheryl acetate, all-rac alpha, Ph.

houseflies [13] = test: Dorsal application of Abamectin and Vitamin E derivatives, mortality (Example 18); format: in vivo, housefly; conditions: combination of Abamectin and the Vitamin E derivative; 2 μl dorsally; Colby
Method: (§3) Various solutions of Vitamin E derivatives, Abamectin and combinations of Vitamin E derivatives and Abamectin were applied dorsally on houseflies. On each housefly 2 μl test solution was applied. The mortality of the treatments was recorded. The mortality results were analysed according to Colby. The synergistic activity of Abamectin and various Vitamin E derivatives on houseflies is illustrated in table 18.

[14] = test system: nymphs of Dysdercus cingulatus; test: Dorsal application of Abamectin and Vitamin E derivatives, mortality (Example 19); format: in vivo; conditions: combination of Abamectin and the Vitamin E derivative; 2 μl dorsally; Colby
Method: as §3, with “nymphs of Dysdercus cingulatus.” for “houseflies.”, “Dysdercus cingulatus” for “housefly”, “Dysdercus cingulatus” for “houseflies”, “19.” for “18.”

houseflies [15] = test: Dorsal application of Abamectin and nicotinic acid derivatives, mortality (Example 21); format: in vivo, housefly; conditions: combination of Abamectin and the nicotinic acid derivative; 2 μl dorsally; Colby
Method: Various solutions of nicotinic acid derivatives, Abamectin and combinations of nicotinic acid derivatives and Abamectin were applied dorsally on houseflies. On each housefly 2 μl test solution was applied. The mortality of the treatments was recorded. The mortality results were analysed according to Colby.

[16] = 30 ng applied per nymph, after 24 h
[17] = 30 ng applied per nymph, after 48 h
[18] = 100 ng applied per nymph, after 24 h
[19] = 100 ng applied per nymph, after 48 h
[20] = 300 ng applied per nymph, after 24 h
[21] = 300 ng applied per nymph, after 48 h
[22] = tested alone, in the tested dose range
[23] = inactivation of the fleas, mixture: based on the concentration of Selamectin

Cc1c(C)c2c(c(C)c1O)CCC(C)(CCCC(C)CCCC(C)CCCC(C)C)O2 (racemic) [tocopherol, tocopherol, all-rac alpha]
% Mortality for each ingredient [1]: 0% | LD50obs [2]: >20,000 ng tocopherol ng AI(s) per nymph | Mortality (%) for each ingredient [3, 16]: 0% | Mortality (%) for each ingredient [3, 17]: 0% | Mortality (%) for each ingredient [3, 18]: 0% | Mortality (%) for each ingredient [3, 19]: 0% | Mortality (%) for each ingredient [3, 20]: 0% | Mortality (%) for each ingredient [3, 21]: 0% | LD50obs (Spodoptera exiqua larvae): >20000 ng AI(s)/larvae | Mortality during the test period ([4]; 20,000 ng tocopherol per nymph, 24 h test period): did not die

CC(=O)Oc1c(C)c(C)c2c(c1C)CCC(C)(CCC[C@H](C)CCC[C@H](C)CCCC(C)C)O2 (mixture of isomers) [tocopheryl acetate]
% protection (Tetranychus urticae; 100 g/ha): 15% | % protection (Tetranychus urticae; 300 g/ha): 8.8% | feeding inhibition activity (Haemonchus contortus; [22]): did not have any feeding inhibition activity | feeding inhibition activity [5, 22]: did not have any feeding inhibition activity | feeding inhibition activity [6, 22]: did not have any feeding inhibition activity | activity in its own right [7]: did not have any activity | activity in its own right ([8]; tested alone): did not have any activity | activity in its own right ([9]; tested alone): did not have any activity | activity in its own right ([10]; tested alone): did not have any activity | effect on mobility of the microfilaria ([11]; alone, in the concentration range tested): did not affect the mobility | activity on the larvae [12]: no activity

Cc1c(C)c2c(c(C)c1O)CC[C@@](C)(CCC[C@H](C)CCC[C@H](C)CCCC(C)C)O2 [(+)alpha-tocopherol]
R (obs mortality/exp mortality) (houseflies [13]): 2.0 | R (obs mortality/exp mortality) [14]: 1.1

CC(=O)Oc1c(C)c(C)c2c(c1C)CC[C@@](C)(CCC[C@H](C)CCC[C@H](C)CCCC(C)C)O2 [(+)alpha-tocopheryl acetate]
R (obs mortality/exp mortality) (houseflies [13]): 1.9 | R (obs mortality/exp mortality) [14]: 1.2

Cc1c(C)c2c(c(C)c1OC(=O)c1cccnc1)CC[C@@](C)(CCC[C@H](C)CCC[C@H](C)CCCC(C)C)O2 [(+)alpha-tocopheryl nicotinate]
R (obs mortality/exp mortality) (houseflies [13]): 3.0 | R (obs mortality/exp mortality) [14]: 1.2 | R (obs mortality/exp mortality) (houseflies [15]): 3.0

Cc1c(C)c2c(c(C)c1OC(=O)CCC(=O)O)CC[C@@](C)(CCC[C@H](C)CCC[C@H](C)CCCC(C)C)O2 [(+)alpha-tocopheryl succinate]
R (obs mortality/exp mortality) [14]: 1.3

Cc1cc(O)cc2c1O[C@](C)(CCC[C@H](C)CCC[C@H](C)CCCC(C)C)CC2 [(+)delta-tocopherol]
R (obs mortality/exp mortality) [14]: 1.6

CO[C@H]1C[C@H](O[C@H]2[C@H](C)O[C@@H](O[C@@H]3/C(C)=C/C[C@@H]4C[C@@H](C[C@]5(C=C[C@H](C)[C@@H](C6CCCCC6)O5)O4)OC(=O)[C@@H]4C=C(C)[C@@H](O)[C@H]5OC/C(=C\C=C\[C@@H]3C)[C@]54O)C[C@@H]2OC)O[C@@H](C)[C@@H]1O [DOR, Doramectin]
LFI-50 H. con. (Haemonchus contortus): 2.63 ppb | LFI-96 H. con. (Haemonchus contortus): 10.37 ppb | LFI-99 H. con. (Haemonchus contortus): 16.30 ppb | LFI-50 T. cir. [5]: 6.12 ppb | LFI-96 T. cir. [5]: 13.14 ppb | LFI-99 T. cir. [5]: 18.52 ppb | LFI-50 T. col. [6]: 2.57 ppb | LFI-96 T. col. [6]: 8.04 ppb | LFI-99 T. col. [6]: 12.22 ppb

CCOC(=O)c1cccnc1 [Ethyl nicotinate]
R (obs mortality/exp mortality) (houseflies [15]): 1.4

O=C(O)c1ccncc1 [Isonicotinic acid]
R (obs mortality/exp mortality) (houseflies [15]): >2

COC(=O)c1cccnc1 [Methyl nicotinate]
R (obs mortality/exp mortality) (houseflies [15]): 3.0

O=C(O)c1cccnc1 [Nicotinic acid]
R (obs mortality/exp mortality) (houseflies [15]): 1.4

CO[C@H]1C[C@H](O[C@@H]2/C(C)=C/C[C@@H]3C[C@@H](C[C@]4(CC[C@H](C)[C@@H](C5CCCCC5)O4)O3)OC(=O)[C@@H]3C=C(C)/C(=N/O)[C@H]4OC/C(=C\C=C\[C@@H]2C)[C@]43O)O[C@@H](C)[C@@H]1O [Selamectin]
ED50 Larvae contact [8, 23]: 31 ppm | ED50 Adult contact [9, 23]: 24330 ppm | ED50 Larvae systemic [10, 23]: 1.5 ppm

Cc1c(C)c2c(c(C)c1O)CCC(C)(C(=O)O)O2 (stereo not shown) [Trolox, 6-hydroxy-2,5,7,8-tetramethylchroman-2-carboxylic acid]
R (obs mortality/exp mortality) (houseflies [13]): 1.3

Emamectin-benzoate
LD50obs (Spodoptera exiqua larvae): 4.30 ng AI(s)/larvae

Ivermectin
Mortality (%) for each ingredient [3, 16]: 8% | Mortality (%) for each ingredient [3, 17]: 27% | Mortality (%) for each ingredient [3, 18]: 33% | Mortality (%) for each ingredient [3, 19]: 65% | Mortality (%) for each ingredient [3, 20]: 63% | Mortality (%) for each ingredient [3, 21]: 86% | LT50 ([4]; in total 20,000 ng/nymph applied dorsally, two replicates of ten nymphs): 9.1 h | LFI-50 H. con. (Haemonchus contortus): 6.10 ppb | LFI-96 H. con. (Haemonchus contortus): 32.12 ppb | LFI-99 H. con. (Haemonchus contortus): 40.68 ppb | LFI-50 T. cir. [5]: 6.37 ppb | LFI-96 T. cir. [5]: 12.59 ppb | LFI-99 T. cir. [5]: 17.35 ppb | LFI-50 T. col. [6]: 2.01 ppb | LFI-96 T. col. [6]: 8.63 ppb | LFI-99 T. col. [6]: 10.81 ppb | EC50 ([11]; mobility of the microfilariae, read-out: EC50 value for Ivermectin): 5.8 µM

Spinosad
% protection (Tetranychus urticae; 100 g/ha): 5% | % protection (Tetranychus urticae; 300 g/ha): 5%
